Counter-ions that a name gives are not always drawn.
Assays:
[1] = Plasma PK of DFO after IV administration of liposomal DFO or Desferal to mice; format: in vivo, CF-1 female mice; settings: 100 mg/kg
Procedure: Liposomes containing egg PC/Chol (3 mol/2 mol, LDFO-1), egg PC/DOPG/Chol (2.7 mol/0.3 mol/2 mol, LDFO-2), and HSPC/Chol (3 mol/2 mol, LDFO-4) containing 500 mM ammonium sulfate were prepared as in Example 1. DFO was remote loaded as in Example 20.
After loading the liposomes were purified by dialysis versus HBS pH 6.5. The liposomes were sterilized by filtration through 0.2 um PES filters and analyzed for drug and lipid content. The liposomal DFO were administered to CF-1 female mice at 100 mg/kg (n=3) and at various times the animals were sacrificed and blood taken.
After processing to plasma, DFO was extracted from plasma by mixing with 6 volumes of methanol containing 0.1% trifluoroacetic acid in an epppendorf tube. The mixtures were vortexed twice for 10 seconds then placed at −80° C. for 1 h. The samples were thawed and centrifuged for 12,000 rpm for 10 min at 4° C. and the supernatant analyzed for DFO by HPLC as described herein. […] By comparison DFO was undetectable beyond 1 h after dosing with Desferal®.

[2] = system: Iron Overloaded Mouse Model; test: Liver iron removal from iron overloaded mouse model (ferrozine assay); format: in vivo, mice; settings: IV 100 mg/kg chelator on day 7 and day 10 after iron-dextran 100 mg/kg Fe
Procedure: LDFO formulations were prepared as described in Example 1. Both formulations were composed of HSPC/cholesterol (3/0.5 (mol/mol)). One formulation was prepared using 250 mM ammonium sulfate (LDFO-AS) as the trapping agent and the second formulation was prepared using 250 mM ascorbate phosphate (LDFO-AP) as the trapping agent and all other components and DFO loading procedures of the formulations were identical. Mice were overloaded with a single IV injection of iron-dextran at 100 mg/kg Fe. Overloaded mice were treated with each formulation IV at 100 mg/kg chelator on day 7 and day 10. The mice were sacrificed after the second treatment and the livers were analyzed for iron content using a ferrozine assay (Riemer et al. 2004)

Row | SMILES | DFO in plasma ([1]; beyond 1 h after dosing) | initial dose (ID) of DFO retained in the plasma ([1]; IV, 24 h) | mean liver iron content [2] [mg/kg]
1 | CC(=O)N(O)CCCCCNC(=O)CCC(=O)N(O)CCCCCNC(=O)CCC(=O)N(O)CCCCCN [Desferal, deferoxamine mesylate] | undetectable | undetectable | 
2 | CC(=O)N(O)CCCCCNC(=O)CCC(=O)N(O)CCCCCNC(=O)CCC(=O)N(O)CCCCCN [free DFO, Deferoxamine] |  |  | 229

From patent US20170239182A1, “PHARMACEUTICAL FORMULATIONS OF AND METHODS TO PREPARE CHELATING AGENTS FOR EFFICIENT METAL REMOVAL TREATMENT SYSTEMS” (ZONEONE PHARMA, INC., priority 2014, published 2017)
